According to patent US7241937B2, “Methods and materials for improving plant drought tolerance” (Ceres, Inc., priority 2004, dated 2007):

Test system: NCED3 transgenic seeds
Test: GA3 treatment: germination of NCED3 transgenic R2 seeds on growth medium containing GA3
Format: in vivo, rice
Description: GA3 treatment: R2 seeds were surface-sterilized with 20% bleach and germinated on half-strength MS containing 0.4 mL/L Finale and filter-sterilized GA3 (gibberellin) to final concentrations of 0, 10, 100, 250, 500 or 1,000 μM.
ABA and GA3 (gibberellin) can act antagonistically in seed germination. To determine whether GA3 could release the prolonged dormancy evident in the NCED3 transgenic seeds, GA3 was added to the growth medium on which the seeds were placed for germination. […] Thus, addition of exogenous of GA3 can, at least in part, overcome the off-type of prolonged dormancy.

Question: How did the “seed germination (release of prolonged dormancy)” value (GA3 at a concentration as low as 10 μM in the growth medium) turn out when `C=C1C[C@]23C[C@@]1(O)CC[C@H]2[C@@]12C=C[C@H](O)[C@@](C)(C(=O)O1)[C@H]2[C@@H]3C(=O)O` [GA3] was run?
Answer: accelerated germination

Question: What about the seedling elongation (higher concentrations of GA3) of the same compound?
Answer: more elongated

Question: And the seed germination (higher concentrations of GA3 (100-1,000 μM) compared with 10 μM)?
Answer: did not significantly improve seed germination
